Assays:
Rac [1] = experiment: Rac activation pull down assay (PAK beads, Western blot); type: cell-based; settings: Western Blot (FIG. 2a)
Method: To determine which of these compounds should be further pursued, a biochemical pull down assay was performed to confirm specific inhibition of Rac activation indicated by disruption of the interaction between Rac and […]. The assay initially required treatment of cells followed by pull down and analysis with Western blot. The cells were first starved in serum free media for 2 hours. They were then re-suspended in serum-containing medium and inhibitors added at desired concentration. Following incubation for the desired length of time, the cells were pelleted and lysed with Magnesium Lysis Buffer (Millipore Mg^2+ lysis/wash buffer). The Rac protein and any bound proteins were then collected with Pak Beads (Millipore Rac/cdc42 Assay Reagent (PAK-1 PBD, agarose). Bound protein was subsequently removed with lysis buffer and subject to Western Blot analysis.
Compound 1 was identified as a lead compound from the above analyses. […] The Western Blot and pull down analyses are also shown for the compound DMSO, and the compound NSC23776, which is a known inhibitor of Rac1 binding and of Rac activation by Rac-specific RhoGEFs.

Rac1 = Rac1 (Homo sapiens, UniProt P63000); experiment: 2D NMR spectroscopy binding assay; settings: 50 μM Rac1 and 250 μM or 400 μM Compound 1
Method: Compound 1 was tested for its efficacy in binding with Rac1 in two independent binding assays, i.e., 2D NMR spectroscopy and Homologous time resolved fluorescence assay (HTRF).
In the 2D NMR assay, samples containing 50 μM Rac1 and 250 μM or 400 μM Compound 1 were used.
Compound 2 was tested for its efficacy in binding with Rac1 in two independent binding assays, i.e., 2D NMR spectroscopy and Homologous time resolved fluorescence assay (HTRF).
In the 2D NMR assay, a sample containing 50 μM Rac1 and 250 μM Compound 2 was used.

Rac [2] = experiment: Rac activation Elisa on spleen infiltrated by leukemic blasts; type: in vivo; settings: mice, 250 mg/Kg twice a day for 21 days, compared to a vehicle
Method: Compound 1 was assayed for its pharmacokinetics and anti-leukemia activities in mice. Specifically, a SEM leukemic cell line was labeled with a vector encoding the mCherry tag and Luciferase. 500,000 labeled cells were injected into immunodeficient mice (NSG mice). After establishment of leukemia (as assessed by bioluminescent imaging), mice were treated with Compound 1 at a dose 250 mg/Kg or a vehicle for 21 days twice a day. During treatment, mice were imaged every other day and BLI recorded and analyzed. 2 hours after the last dose, animals were sacrificed and organs harvested for PK and PD analysis.

P12 cell line = experiment: Annexin V flow assay for apoptosis and cell death, P12; type: cell-based; settings: Annexin V staining
Source text: FIGS. 3a-3c show three graphs illustrating the dose dependent inhibition of proliferation of Compound 1 in SEM, P12, and Loucy cells as measured by MTS assay. […] Compound 1 was further analyzed for its effect on cell apoptosis and cell death using a flow based assay using Annexin V staining.

`CCc1ccc(CN(C)C(=O)CCc2nnc(CCc3c[nH]c4ccccc34)o2)nc1` (racemic) [Compound 1] was tested, and the “total Rac levels” value (Rac [1]) was “no significant effect”, the Rac activation (Rac [1]; pull down) was “dose dependent reduction” and the “binding to Rac1 by 2D NMR” value (Rac1) was “did not indicate any binding”. The “Rac activation status in spleen” value (Rac [2]) was “reduced Rac activation” and the “cell apoptosis and cell death” value (P12 cell line) was “caused cells apoptosis and cell death”.

From patent US11427574B2, “Compounds for treating Rac-GTPase mediated disorder” (Children's Medical Center Corporation, priority 2015, dated 2022)
